Data from patent US20040063790A1, “Methods for inhibition of angiogenesis” (The Scripps Research Institute, priority 1996, published 2004).
[ ]: non-standard residue; d: D form.

Tests used:
Type in all cases: in vivo, chick
vascular cell apoptosis = test: Apoptosis in bFGF-treated CAM, Apop Tag staining; settings: 300 μg/ml; treated two days prior; versus PBS or control peptide 69601
Method: CAM assays with growth factor-induced angiogenesis, as described in Example 4A, were also performed with the synthetic peptides of this invention to determine the effect of cyclic peptides on apoptosis. The peptides cyclo-RGDfV (66203) and cyclo-RADfV (69601) were prepared as described in Example 1. The peptide solutions or PBS were injected into the CAM preparation at a concentration of 300 μg/ml. At 24 and 48 hours, the filter paper and surrounding CAM tissue was dissected and stained with the Apop Tag to detect apoptosis.

UCLAP-3 tumors = test: Tumor regression in the CAM assay, UCLAP-3; settings: 100 μg intravenously 18 hours post-implantation; FIG. 15
Method: (§1) As described in Example 5, in addition to visually assessing the effect of anti-αvβ3 antagonists on growth factor or tumor induced angiogenesis, the effect of the antagonists was also assessed by measuring any changes to the tumor mass following exposure. For this analysis, the tumor-induced angiogenesis CAM assay system was prepared as described in Example 4C. At the end of the 7 day incubation period, the resulting tumors were resected from the CAMs and trimmed free of any residual CAM tissue, washed with 1 ml of phosphate buffer saline and wet weights were determined for each tumor.
(§2) To further assess the effects of αvβ3 antagonists on tumor growth and survival, fragments of human melanoma and fragments of carcinomas of the lung, pancreas, and larynx were placed on CAMS of 10-day old embryos as described in Example 3A.
(§3) Additional tumor regression assays were performed with the αvβ3-reactive peptide 85189 (SEQ ID NO: 15) against 69601 as a control. The assays were performed as described above with the exception that 100 μg of peptide was intravenously injected into the CAM at 18 hours post-implantation. After 48 hours more, the tumors were then resected and wet weights were obtained.

FgM tumors = test: Tumor regression in the CAM assay, FgM; settings: 100 μg intravenously 18 hours post-implantation; FIG. 17
Method: as §1, §2, §3

Substance: cyclo (RGDfV) [Peptide 66203]
- increase in Apop Tag staining (vascular cell apoptosis): 3 to 4 fold

Substance: cyclo (RADfV) (cyclo(RAD[dF]V); SMILES CC(C)[C@@H]1NC(=O)[C@@H](Cc2ccccc2)NC(=O)[C@H](CC(=O)O)NC(=O)[C@H](C)NC(=O)[C@H](CCCNC(=N)N)NC1=O) [Peptide 69601, reference compound]
- effect on tumor weight, UCLAP-3 (UCLAP-3 tumors): lack of effect
- effect on tumor weight, FgM (FgM tumors): lack of effect
